Data reported in ChEMBL document CHEMBL6071128, “Chalcone-Monoterpene Derivatives from the Buds of Cleistocalyx operculatus and Their Potential as Protein Tyrosine Phosphatase 1B Inhibitors” (J Nat Prod, 2024).
pIC50, pKi: −log10 of the molar value.

Columns and labels:
[1] = target: T1, Tyrosine-protein phosphatase non-receptor type 1 (Homo sapiens, UniProt P18031)
T1 sequence (P18031 whole entry): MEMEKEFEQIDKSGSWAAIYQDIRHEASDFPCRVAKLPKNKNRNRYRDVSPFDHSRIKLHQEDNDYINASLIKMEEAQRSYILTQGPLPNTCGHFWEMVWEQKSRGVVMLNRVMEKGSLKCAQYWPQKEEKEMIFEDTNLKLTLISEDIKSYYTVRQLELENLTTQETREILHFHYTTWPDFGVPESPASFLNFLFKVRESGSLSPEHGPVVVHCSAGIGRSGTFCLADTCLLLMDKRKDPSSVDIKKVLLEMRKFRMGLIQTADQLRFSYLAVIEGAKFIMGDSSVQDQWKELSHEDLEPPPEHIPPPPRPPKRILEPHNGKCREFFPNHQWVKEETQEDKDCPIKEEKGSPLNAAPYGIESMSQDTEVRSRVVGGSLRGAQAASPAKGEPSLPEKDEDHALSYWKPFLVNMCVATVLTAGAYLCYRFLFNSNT
Description: Inhibition of human recombinant PTP1B (1 to 322 residues) extracted from Escherichia coli using p-nitrophenyl phosphate as substrate incubated for 30 mins by absorbance based analysis

[2] = target: T1, Tyrosine-protein phosphatase non-receptor type 1; remark: listed apart in the source
Description: Binding affinity to human recombinant PTP1B (1 to 322 residues) extracted from Escherichia coli assessed as inhibition constant using p-nitrophenyl phosphate as substrate preincubated for 2 mins followed by substrate addition and measured after 15 mins by absorbance based analysis

Compound | pIC50 [1] | pKi [2]
COc1c(C)c(O)c(C=O)c(O)c1C(=O)[C@H]1CC(CCC=C(C)C)=CC[C@@H]1c1ccccc1 | 5.96 | 5.23
COc1c(C)c(O)c(C=O)c(O)c1C(=O)/C=C/c1ccccc1 | 5.41 | –
COc1c(C)c(O)c(C=O)c(O)c1C(=O)[C@@H]1CC(CCC=C(C)C)=CC[C@H]1c1ccccc1 | 5.85 | 5.47
CC1=C2O[C@]34OC(c5ccccc5)CC(O)=C3C(=O)C(C)(C)C(=O)[C@]4(C)CC2=C(O)C(C(=O)/C=C/c2ccccc2)C1=O (some centres not stated) | 5.82 | 5.28
